Reference: US20260250318A1, “COMPOSITIONS AND METHODS FOR CROSSING THE BLOOD BRAIN BARRIER” (VOYAGER THERAPEUTICS, INC., priority 2022, published 2026)

What was measured:
Details in all cases: synthetic library passage 3, intravenous, relative to wild-type AAV9
brain [1] = assay: NGS fold enrichment of synthetic library (passage 3) in BALB/c mice, first cross-species screen; format: in vivo
Experimental: (§1) After creation of the synthetic library with the sub-selected variants, the synthetic library was screened (passage 3) in two NHPs (2-4 years of age) and two strains of mice, BALB/c (n=3, 6-8 weeks of age) and C57Bl/6 mice (n=3, 6-8 weeks of age), in a first cross-species evolution screen. The animals were injected intravenously with the synthetic library. After a period in vivo, (e.g., 28-days) RNA was extracted from nervous tissue, e.g., brain, spinal cord, and DRG of the NHPs and the brains of mice. Following RNA recovery and RT-PCR amplification, a systematic NGS enrichment analysis was performed, and the peptides comprised within the variants were identified and the capsid enrichment ratio for each variant compared to the wild-type AAV9 control was calculated (fold enrichment relative to wild-type AAV9) (Table 9). […] All animals were dosed intravenously at […] across the screen.

brain [2] = assay: NGS fold enrichment of synthetic library (passage 3) in C57Bl/6 mice, first cross-species screen; format: in vivo
Experimental: as §1

[3] = test system: brain, spinal cord, and DRG of the NHPs; assay: NGS fold enrichment of synthetic library (passage 3) in NHPs, first cross-species screen; format: in vivo, cynomolgus macaques (Macaca fascicularis)
Experimental: as §1

[4] = RNA from brain of BALB/c mice, NGS
[5] = RNA from brain of C57Bl/6 mice, NGS
[6] = RNA from spinal cord of NHPs, NGS

| Sequence | Fold enrichment over AAV9 in the brain of Mice (BALB/c) (brain [1]; RNA NGS, brain of BALB/c mice) | Fold enrichment over AAV9 in the brain of Mice (C57Bl/6) (brain [2]; RNA NGS, brain of C57Bl/6 mice) | Fold enrichment over AAV9 in the brain of NHPs ([3]; RNA NGS, brain of NHPs) | Fold enrichment over AAV9 in the spinal cord of NHPs ([3]; RNA NGS, spinal cord of NHPs) | Fold enrichment over AAV9 in the brain of Mice (BALB/c) (brain [1]; [4]) | Fold enrichment over AAV9 in the brain of Mice (C57Bl/6) (brain [2]; [5]) | Fold enrichment over AAV9 in the brain of NHPs ([3]; RNA from brain of NHPs, NGS) | Fold enrichment over AAV9 in the spinal cord of NHPs [3, 6] |
| --- | --- | --- | --- | --- | --- | --- | --- | --- |
| GSGTQIPSQQNQQT | 0.151 fold | 0.470 fold | 3.112 fold | 1.224 fold | – | – | – | – |
| GSGQNQQLANMVTT | 0.987 fold | 1.253 fold | 1.014 fold | 1.739 fold | – | – | – | – |
| GSGQPVLSISNQQT | 0.282 fold | 0.390 fold | 1.586 fold | 2.695 fold | – | – | – | – |
| GSGSSSRPYQNQQT | 0.496 fold | 0.962 fold | 1.934 fold | 3.823 fold | – | – | – | – |
| GSGQNQQLGSRQCT | 0.407 fold | 0.987 fold | 1.102 fold | 0.183 fold | – | – | – | – |
| GSGQNQQTPGAHKT | 0.277 fold | 0.957 fold | 1.105 fold | 3.827 fold | – | – | – | – |
| GSNLSFQSGQNQQT | 0.719 fold | 1.087 fold | 2.122 fold | 5.853 fold | – | – | – | – |
| GQLVTFTSGQNQQT | – | – | – | – | 0.294 fold | 0.819 fold | 1.331 fold | 11.282 fold |
| GSGQSMTLHLNQQT | 0.248 fold | 0.721 fold | 1.827 fold | 0.991 fold | – | – | – | – |
| GSGQNQQQRDGTLT | – | – | – | – | 0.730 fold | 0.760 fold | 1.152 fold | 0.387 fold |
| GSHTLVVSGQNQQT | 0.748 fold | 0.671 fold | 1.069 fold | 1.535 fold | – | – | – | – |
| GSGQNQQVHLSTGT | 0.455 fold | 1.011 fold | 1.811 fold | 0.266 fold | – | – | – | – |
| GSGRHLASVQNQQT | – | – | – | – | 0.606 fold | 0.654 fold | 1.187 fold | 1.024 fold |
| GSGQTRMPLANQQT | – | – | – | – | 0.273 fold | 0.447 fold | 1.296 fold | 0.790 fold |
| GSGDSITGKQNQQT | 0.306 fold | 0.793 fold | 2.112 fold | 1.295 fold | – | – | – | – |
| GSGQYVHVSSNQQT | – | – | – | – | 0.366 fold | 0.739 fold | 1.137 fold | 1.803 fold |
| GSGQNQHSAPFNQT | 0.870 fold | 0.759 fold | 1.969 fold | 0.499 fold | – | – | – | – |
| GSVLHSHAAQNQQT | 0.423 fold | 0.675 fold | 4.150 fold | 6.448 fold | – | – | – | – |
| GNIAGSVSGQNQQT | 0.257 fold | 0.446 fold | 2.849 fold | 1.187 fold | – | – | – | – |
